The values below come from ChEMBL document CHEMBL5291721, “A preclinical secondary pharmacology resource illuminates target-adverse drug reaction associations of marketed drugs” (Nat Commun, 2023).

The structures appear in SMILES notation. Bounds are passed on as bounds.

Broadly, the AC50 is the midpoint of the concentration-response curve, whichever way the signal moves. Read a high AC50 as activity only at high concentration.

The target in experiment [1] is Gamma-aminobutyric acid receptor subunit alpha-1 (Rattus norvegicus, UniProt P62813).
Gamma-aminobutyric acid receptor subunit alpha-1, sequence (P62813 whole entry): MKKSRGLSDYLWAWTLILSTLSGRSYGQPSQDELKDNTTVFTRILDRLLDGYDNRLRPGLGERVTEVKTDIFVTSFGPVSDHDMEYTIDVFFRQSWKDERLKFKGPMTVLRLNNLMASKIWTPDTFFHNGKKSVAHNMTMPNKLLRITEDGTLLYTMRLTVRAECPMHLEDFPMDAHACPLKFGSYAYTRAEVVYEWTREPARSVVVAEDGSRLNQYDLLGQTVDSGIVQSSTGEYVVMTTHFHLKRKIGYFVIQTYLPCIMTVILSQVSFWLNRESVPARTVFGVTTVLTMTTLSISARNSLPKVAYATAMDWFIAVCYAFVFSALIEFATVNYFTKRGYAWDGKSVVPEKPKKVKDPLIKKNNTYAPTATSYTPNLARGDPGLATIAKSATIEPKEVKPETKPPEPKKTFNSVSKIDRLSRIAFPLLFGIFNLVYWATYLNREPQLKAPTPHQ
The target of experiment [2] is T1, Muscarinic acetylcholine receptor M1 (Homo sapiens, UniProt P11229).
T1 sequence (P11229 whole entry): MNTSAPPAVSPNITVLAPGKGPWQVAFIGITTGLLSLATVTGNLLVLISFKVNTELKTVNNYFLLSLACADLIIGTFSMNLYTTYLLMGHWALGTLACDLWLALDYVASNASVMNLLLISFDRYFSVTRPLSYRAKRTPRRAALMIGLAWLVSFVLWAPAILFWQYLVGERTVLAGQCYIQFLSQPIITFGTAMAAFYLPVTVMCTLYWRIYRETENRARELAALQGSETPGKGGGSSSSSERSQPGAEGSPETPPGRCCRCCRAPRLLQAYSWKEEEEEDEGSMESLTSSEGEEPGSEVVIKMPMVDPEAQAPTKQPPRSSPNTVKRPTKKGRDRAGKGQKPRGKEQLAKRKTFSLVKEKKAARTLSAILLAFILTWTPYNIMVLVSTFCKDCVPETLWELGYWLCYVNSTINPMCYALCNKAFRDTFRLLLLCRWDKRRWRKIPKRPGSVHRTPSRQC
In kind it is functional, cell-based.

In experiment [3] the target is T2, Adenosine receptor A3 (Homo sapiens, UniProt P0DMS8).
T2 sequence (P0DMS8 whole entry): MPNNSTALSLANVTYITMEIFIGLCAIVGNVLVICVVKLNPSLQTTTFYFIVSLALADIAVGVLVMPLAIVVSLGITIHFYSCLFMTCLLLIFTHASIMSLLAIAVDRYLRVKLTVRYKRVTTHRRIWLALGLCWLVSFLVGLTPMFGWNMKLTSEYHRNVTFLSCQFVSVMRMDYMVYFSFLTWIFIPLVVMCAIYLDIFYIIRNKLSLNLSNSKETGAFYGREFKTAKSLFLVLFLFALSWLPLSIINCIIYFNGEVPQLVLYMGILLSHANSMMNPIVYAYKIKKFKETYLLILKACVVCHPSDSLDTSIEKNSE

For experiment [4], the target named is T3, Androgen receptor (Homo sapiens, UniProt P10275).
T3 sequence (P10275 whole entry): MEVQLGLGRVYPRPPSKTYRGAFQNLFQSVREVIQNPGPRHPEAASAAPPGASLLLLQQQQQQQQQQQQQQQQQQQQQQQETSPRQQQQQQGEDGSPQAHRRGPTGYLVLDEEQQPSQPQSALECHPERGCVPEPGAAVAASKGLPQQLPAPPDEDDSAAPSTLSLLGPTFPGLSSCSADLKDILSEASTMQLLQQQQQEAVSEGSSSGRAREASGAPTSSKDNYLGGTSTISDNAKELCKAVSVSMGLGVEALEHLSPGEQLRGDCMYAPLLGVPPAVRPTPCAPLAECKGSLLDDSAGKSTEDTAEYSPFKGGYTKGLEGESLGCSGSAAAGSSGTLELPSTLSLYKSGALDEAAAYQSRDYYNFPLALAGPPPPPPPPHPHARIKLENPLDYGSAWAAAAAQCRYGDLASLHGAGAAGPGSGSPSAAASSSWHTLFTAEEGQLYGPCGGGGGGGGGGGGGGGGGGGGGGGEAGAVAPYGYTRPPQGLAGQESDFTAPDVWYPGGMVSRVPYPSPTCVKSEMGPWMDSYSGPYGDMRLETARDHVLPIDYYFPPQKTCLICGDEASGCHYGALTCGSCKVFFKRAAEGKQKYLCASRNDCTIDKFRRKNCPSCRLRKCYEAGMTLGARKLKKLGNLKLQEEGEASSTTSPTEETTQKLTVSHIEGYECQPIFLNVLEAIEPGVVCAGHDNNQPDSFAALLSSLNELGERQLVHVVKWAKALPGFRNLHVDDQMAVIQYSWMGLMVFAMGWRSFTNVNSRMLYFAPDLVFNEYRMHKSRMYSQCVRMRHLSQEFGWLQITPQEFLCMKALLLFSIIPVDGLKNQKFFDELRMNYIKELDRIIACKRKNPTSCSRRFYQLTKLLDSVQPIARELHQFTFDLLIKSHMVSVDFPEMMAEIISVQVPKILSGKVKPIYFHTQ

Experiment [5] deals with T1, Muscarinic acetylcholine receptor M1. In kind it is functional, cell-based. This is another data set of the same source.
The target in experiment [6] is Gamma-aminobutyric acid receptor subunit alpha-1/alpha-2/beta-2/gamma-2 (Homo sapiens, UniProt P14867+P18507+P47869+P47870). The class given is protein-complex assay.
Gamma-aminobutyric acid receptor subunit alpha-1/alpha-2/beta-2/gamma-2, sequence (P14867 whole entry): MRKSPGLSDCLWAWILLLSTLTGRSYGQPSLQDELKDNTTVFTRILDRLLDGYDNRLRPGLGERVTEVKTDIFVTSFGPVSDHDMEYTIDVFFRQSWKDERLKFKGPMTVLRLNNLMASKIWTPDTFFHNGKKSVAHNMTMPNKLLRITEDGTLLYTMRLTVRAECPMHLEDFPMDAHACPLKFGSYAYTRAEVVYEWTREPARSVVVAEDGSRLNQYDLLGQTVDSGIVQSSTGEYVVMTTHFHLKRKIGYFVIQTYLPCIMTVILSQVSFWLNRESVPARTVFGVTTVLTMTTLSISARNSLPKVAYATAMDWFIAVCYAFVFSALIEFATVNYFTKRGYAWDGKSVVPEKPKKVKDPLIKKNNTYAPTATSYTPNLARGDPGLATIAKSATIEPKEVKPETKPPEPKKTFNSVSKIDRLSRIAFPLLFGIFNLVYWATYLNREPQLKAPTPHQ
Gamma-aminobutyric acid receptor subunit alpha-1/alpha-2/beta-2/gamma-2, sequence (P47870 whole entry): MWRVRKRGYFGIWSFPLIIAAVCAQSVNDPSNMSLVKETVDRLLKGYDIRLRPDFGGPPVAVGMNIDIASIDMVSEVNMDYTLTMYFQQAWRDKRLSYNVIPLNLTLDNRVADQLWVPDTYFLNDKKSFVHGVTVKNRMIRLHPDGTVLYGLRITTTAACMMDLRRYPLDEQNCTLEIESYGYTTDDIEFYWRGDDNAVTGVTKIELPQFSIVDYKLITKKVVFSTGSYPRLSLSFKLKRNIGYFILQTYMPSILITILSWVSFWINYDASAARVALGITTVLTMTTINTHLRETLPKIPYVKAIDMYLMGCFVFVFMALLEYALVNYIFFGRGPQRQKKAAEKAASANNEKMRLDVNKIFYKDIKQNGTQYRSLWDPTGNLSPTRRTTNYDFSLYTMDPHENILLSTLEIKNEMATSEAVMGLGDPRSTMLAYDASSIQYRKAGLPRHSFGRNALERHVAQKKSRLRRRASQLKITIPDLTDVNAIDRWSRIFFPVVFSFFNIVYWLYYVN
Gamma-aminobutyric acid receptor subunit alpha-1/alpha-2/beta-2/gamma-2, sequence (P18507 whole entry): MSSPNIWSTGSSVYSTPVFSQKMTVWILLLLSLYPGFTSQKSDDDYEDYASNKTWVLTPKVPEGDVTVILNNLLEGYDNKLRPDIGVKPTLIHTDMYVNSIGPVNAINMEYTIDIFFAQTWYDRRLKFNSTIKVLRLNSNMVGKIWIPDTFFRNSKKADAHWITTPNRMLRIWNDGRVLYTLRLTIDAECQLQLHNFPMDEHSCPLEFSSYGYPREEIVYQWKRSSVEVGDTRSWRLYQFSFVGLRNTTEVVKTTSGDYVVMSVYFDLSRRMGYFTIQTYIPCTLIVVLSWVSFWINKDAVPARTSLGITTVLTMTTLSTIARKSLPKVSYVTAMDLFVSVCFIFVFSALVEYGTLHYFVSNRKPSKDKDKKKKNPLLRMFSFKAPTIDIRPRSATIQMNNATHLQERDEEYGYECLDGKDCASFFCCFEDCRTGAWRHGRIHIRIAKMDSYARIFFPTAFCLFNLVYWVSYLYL
Gamma-aminobutyric acid receptor subunit alpha-1/alpha-2/beta-2/gamma-2, sequence (P47869 whole entry): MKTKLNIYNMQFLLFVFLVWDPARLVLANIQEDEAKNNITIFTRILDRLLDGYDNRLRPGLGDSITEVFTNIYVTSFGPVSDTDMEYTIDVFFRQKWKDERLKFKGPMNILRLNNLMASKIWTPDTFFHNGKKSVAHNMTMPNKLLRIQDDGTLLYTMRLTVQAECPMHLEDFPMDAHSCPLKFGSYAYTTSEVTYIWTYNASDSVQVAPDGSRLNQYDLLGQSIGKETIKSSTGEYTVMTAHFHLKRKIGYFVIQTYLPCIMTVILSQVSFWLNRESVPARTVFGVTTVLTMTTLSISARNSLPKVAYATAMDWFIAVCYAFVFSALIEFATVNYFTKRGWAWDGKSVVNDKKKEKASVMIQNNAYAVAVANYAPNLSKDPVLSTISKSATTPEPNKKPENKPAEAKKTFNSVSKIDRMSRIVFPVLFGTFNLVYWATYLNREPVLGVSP
Experiment [7] addresses Sodium-dependent noradrenaline transporter (Homo sapiens, UniProt P23975).
In experiment [8] the target is 5-hydroxytryptamine receptor 2A (Homo sapiens, UniProt P28223). The class given is functional, cell-based.
5-hydroxytryptamine receptor 2A, sequence (P28223 whole entry): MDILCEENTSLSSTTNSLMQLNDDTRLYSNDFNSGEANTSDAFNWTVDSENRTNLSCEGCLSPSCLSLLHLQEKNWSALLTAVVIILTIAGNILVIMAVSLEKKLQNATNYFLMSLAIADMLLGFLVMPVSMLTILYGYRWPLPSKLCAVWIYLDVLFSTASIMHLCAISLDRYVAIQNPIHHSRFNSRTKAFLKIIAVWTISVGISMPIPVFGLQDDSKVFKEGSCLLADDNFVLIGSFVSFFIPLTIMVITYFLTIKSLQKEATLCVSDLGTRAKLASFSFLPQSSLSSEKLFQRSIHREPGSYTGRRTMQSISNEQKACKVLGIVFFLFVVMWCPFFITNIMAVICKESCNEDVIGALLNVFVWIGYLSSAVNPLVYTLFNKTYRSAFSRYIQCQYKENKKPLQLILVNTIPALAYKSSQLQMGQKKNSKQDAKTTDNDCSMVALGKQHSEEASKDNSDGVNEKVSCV
Further: assay procedure not described here.

Sodium-dependent noradrenaline transporter, sequence (P23975 whole entry): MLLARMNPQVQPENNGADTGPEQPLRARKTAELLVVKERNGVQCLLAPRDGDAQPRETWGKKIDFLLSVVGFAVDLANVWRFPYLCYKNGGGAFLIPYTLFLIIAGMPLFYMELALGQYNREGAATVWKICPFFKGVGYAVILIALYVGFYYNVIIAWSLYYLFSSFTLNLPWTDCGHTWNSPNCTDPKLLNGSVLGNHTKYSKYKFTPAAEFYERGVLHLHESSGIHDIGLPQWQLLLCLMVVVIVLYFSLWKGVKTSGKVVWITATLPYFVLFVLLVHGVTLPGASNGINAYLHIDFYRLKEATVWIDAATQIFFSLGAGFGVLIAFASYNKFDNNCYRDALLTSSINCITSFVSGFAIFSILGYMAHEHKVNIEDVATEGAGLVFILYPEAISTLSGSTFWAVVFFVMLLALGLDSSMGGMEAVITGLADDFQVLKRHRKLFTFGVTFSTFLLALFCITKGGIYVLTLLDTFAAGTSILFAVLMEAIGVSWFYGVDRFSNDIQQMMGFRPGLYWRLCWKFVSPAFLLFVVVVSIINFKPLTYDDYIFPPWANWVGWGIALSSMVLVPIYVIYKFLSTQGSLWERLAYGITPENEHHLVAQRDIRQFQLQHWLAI

For the molecule `COCC(=O)O[C@]1(CCN(C)CCCc2nc3ccccc3[nH]2)CCc2cc(F)ccc2[C@@H]1C(C)C` [MIBEFRADIL], the AC50 in experiment [1] was more than 30 µM; in experiment [2] it was more than 3 µM; in experiment [3] it was 14.3 µM; in experiment [4], more than 30 µM; in experiment [5] it was 17.7 µM; in experiment [6], more than 10 µM.

`CN1C(C(=O)Nc2ccccn2)=C(OC(=O)/C=C/c2ccccc2)c2ccccc2S1(=O)=O` [PIROXICAM CINNAMATE]: the AC50 in experiment [2], in experiment [3], in experiment [4], in experiment [5] and in experiment [6] was more than 30 µM in each case.

With `Cc1cn(-c2cc(NC(=O)c3ccc(C)c(Nc4nccc(-c5cnccn5)n4)c3)cc(C(F)(F)F)c2)cn1` [RADOTINIB], the AC50 in experiment [2] is more than 30 µM; in experiment [3], 0.298 µM; in experiment [7], more than 30 µM; in experiment [4], more than 30 µM; in experiment [8], more than 30 µM; in experiment [5] it was more than 30 µM. In experiment [6], the AC50 is more than 30 µM.

With `COC(=O)N(C)c1c(N)nc(-c2nn(Cc3ccccc3F)c3ncccc23)nc1N` [RIOCIGUAT], the AC50 is more than 30 µM in experiment [2]; 13.9 µM in experiment [3]; more than 30 µM in experiment [4]; more than 30 µM in experiment [5]; more than 30 µM in experiment [6].
